Data as given in patent publication US20240025862A1, “SUBSTITUTED N-PHENYLURACILS AND SALTS THEREOF, AND USE THEREOF AS HERBICIDAL ACTIVE SUBSTANCES” (Bayer Aktiengesellschaft, priority 2020, published 2024).
Read-outs that look alike come from different tables or passages of the source.

Experiments:
Format in all cases: in vivo
[1] = tested on: Triticum aestivum (TRZAS); assay: Post-emergence crop plant compatibility, greenhouse pot test; conditions: vs untreated controls
Summary of the method: (§1)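 Visual % damage vs untreated controls, scored ~3 weeks post-spray (100% = dead, 0% = as control). Plants in sandy loam, greenhouse; treated at one-leaf stage, 2–3 wk after sowing. WP/EC, aqueous, 0.5% additive, 600 l/ha. Suffixes a/b/c = different dosages.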

Brassica napus (BRSNW) = assay: as above; conditions: for Post-emergence action against BRSNW (crop plant compatibility): vs untreated controls
Summary of the method: as §1

[2] = tested on: Matricaria inodora (MATIN); assay: Post-emergence herbicidal action, greenhouse pot test (also comparative test C); conditions: Tripleurospermum inodorum, 504 h, read-out: Post-emergence action against MATIN in %
Summary of the method: (§2)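 Greenhouse pot plants in sandy loam were sprayed post-emergence at the one-leaf stage (2–3 weeks after sowing) with WP or EC formulations plus 0.5% additive at 600 l/ha water. Activity was rated visually after about 3 weeks versus untreated controls (100% = dead, 0% = like control); rates were 20 g/ha or less, and 5 g/ha or less in the comparative test.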

[3] = tested on: Alopecurus myosuroides (ALOMY); assay: as above; conditions: for pest or weed control at 20 g/ha: read-out: Post-emergence action at 20 g/ha against ALOMY in %
Summary of the method: as §2

Setaria viridis (SETVI) = assay: as above; conditions: Setaria viridis, 504 h; for pest or weed control at 20 g/ha: read-out: Post-emergence action against SETVI; for pest or weed control at 1.25 g/ha / pest or weed control at 5 g/ha: read-out: Post-emergence action against SETVI in %
Summary of the method: as §2

[4] = tested on: Echinochloa crus-galli (ECHCG); assay: as above
Summary of the method: as §2

Oryza sativa (ORYSA) = assay: Post-emergence crop plant compatibility, greenhouse pot test (also comparative test C); conditions: vs untreated controls
Summary of the method: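 Visual damage versus untreated plants (0% = like control, 100% = plants died) was scored about 3 weeks after a post-emergence spray in greenhouse pots. Treatment: one-leaf stage, WP or EC in water at 600 l/ha with 0.5% additive; a/b/c mark different dosages on the same crop.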

[5] = tested on: Abutilon theophrasti (ABUTH); assay: Post-emergence herbicidal action, greenhouse pot test; conditions: Abutilon theophrasti, 504 h; for pest or weed control at 1.25 g/ha: read-out: Post-emergence action at 1.25 g/ha against ABUTH in %; for pest or weed control at 5 g/ha: read-out: Post-emergence action at 5 g/ha against ABUTH in %; for pest or weed control at 20 g/ha: read-out: Post-emergence action at 20 g/ha against ABUTH in %
Summary of the method: (§3)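 Activity was scored by eye about 3 weeks after treatment against untreated plants, where 100% means dead plants and 0% means no difference. Plants at the one-leaf stage received a foliar spray of WP or EC formulations in water plus 0.5% additive (600 l/ha, up to 20 g/ha). Plants were grown in sandy loam pots in a greenhouse for 2–3 weeks before spraying.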

Lolium rigidum (LOLRI) = assay: as above
Summary of the method: as §3

Veronica persica (VERPE) = assay: as above; conditions: Veronica persica, 504 h, read-out: Post-emergence action against VERPE
Summary of the method: as §3

[6] = tested on: Pharbitis purpurea (PHBPU); assay: as above; conditions: Ipomoea purpurea, 504 h, read-out: Post-emergence action against PHBPU in %
Summary of the method: as §3

Viola tricolor (VIOTR) = assay: as above; conditions: Viola tricolor, 504 h, read-out: Post-emergence action against VIOTR
Summary of the method: as §3

[7] = tested on: Amaranthus retroflexus (AMARE); assay: as above; conditions: Amaranthus retroflexus, 504 h; for pest or weed control at 1.25 g/ha: read-out: Post-emergence action at 1.25 g/ha against AMARE in %; for pest or weed control at 5 g/ha: read-out: Post-emergence action at 5 g/ha against AMARE in %; for pest or weed control at 20 g/ha: read-out: Post-emergence action at 20 g/ha against AMARE in %
Summary of the method: as §3

Avena fatua (AVEFA) = assay: as above; conditions: Avena fatua, 504 h, read-out: Post-emergence action at 20 g/ha against AVEFA in %
Summary of the method: as §3

Zea mays (ZEAMX) = assay: Post-emergence crop plant compatibility, greenhouse pot test; conditions: 1.25 g/ha, vs untreated controls
Summary of the method: as §1

Glycine max (GLXMA) = assay: as above
Summary of the method: as §1

Hordeum murinum (HORMU) = assay: Post-emergence herbicidal action, greenhouse pot test; conditions: 20 g/ha, rated visually after about 3 weeks vs untreated controls, 100% = plants have died
Summary of the method: as §3

Stellaria media (STEME) = assay: as above
Summary of the method: as §3

[8] = tested on: Polygonum convolvulus (POLCO); assay: as above; conditions: Fallopia convolvulus, 504 h, read-out: Post-emergence action against POLCO in %
Summary of the method: as §3

[9] = 1.25 g/ha, rated visually after about 3 weeks vs untreated controls, 100% = plants have died
[10] = 5 g/ha, rated visually after about 3 weeks vs untreated controls, 100% = plants have died
[11] = 20 g/ha, rated visually after about 3 weeks vs untreated controls, 100% = plants have died

Cn1c(C(F)(F)F)cc(=O)n(-c2cc(Oc3ccccc3OCC(=O)OCc3ccccn3)c(Cl)cc2F)c1=O [I.7-276, Pyridin-2-ylmethyl (2-{2-chloro-4-fluoro-5-[3-methyl-2,6-dioxo-4-(trifluoromethyl)-3,6-dihydropyrimidin-1(2H)-yl]phenoxy}phenoxy)acetate]
Post-emergence action against TRZAS (crop plant compatibility) ([1]; 1.25 g/ha): 20% | Post-emergence action against TRZAS (crop plant compatibility) ([1]; 5 g/ha): 20% | Post-emergence action against BRSNW (crop plant compatibility) (Brassica napus (BRSNW); 1.25 g/ha): 20% | Post-emergence action at 5 g/ha against BRSNW in % (Brassica napus (BRSNW); 5 g/ha, crop plant compatibility, observed effects on crop plant in comparison to untreated controls): 20% | Post-emergence action against BRSNW (crop plant compatibility) (Brassica napus (BRSNW); 20 g/ha): 20% | pest or weed control at 1.25 g/ha ([2]; dosage 1.25 g/ha): 100% | pest or weed control at 5 g/ha ([2]; dosage 5 g/ha): 100% | pest or weed control at 20 g/ha ([2]; dosage 20 g/ha): 100% | Post-emergence action at 1.25 g/ha against ALOMY in % [3, 9]: 90% | pest or weed control at 5 g/ha ([3]; Alopecurus myosuroides, 504 h, 5 g/ha, rated visually after about 3 weeks vs untreated controls, 100% = plants have died, read-out: Post-emergence action at 5 g/ha against ALOMY in %): 100% | pest or weed control at 20 g/ha ([3]; Alopecurus myosuroides, 504 h, 20 g/ha, rated visually after about 3 weeks vs untreated controls, 100% = plants have died): 100% | pest or weed control at 20 g/ha (Setaria viridis (SETVI); 20 g/ha): 100% | pest or weed control at 1.25 g/ha (Setaria viridis (SETVI); dosage 1.25 g/ha): 100% | pest or weed control at 5 g/ha (Setaria viridis (SETVI); dosage 5 g/ha): 100% | Post-emergence action at 1.25 g/ha against ECHCG in % [4, 9]: 90% | pest or weed control at 5 g/ha ([4]; Echinochloa crus-galli, 504 h, dosage 5 g/ha, read-out: Post-emergence action against ECHCG in %): 100% | pest or weed control at 20 g/ha ([4]; Echinochloa crus-galli, 504 h, dosage 20 g/ha, read-out: Post-emergence action against ECHCG in %): 100% | Post-emergence action against ORYSA (crop plant compatibility) (Oryza sativa (ORYSA); 1.25 g/ha): 0% | pest or weed control at 1.25 g/ha [5, 9]: 100% | pest or weed control at 5 g/ha [5, 10]: 100% | pest or weed control at 20 g/ha [5, 11]: 100% | Post-emergence action at 5 g/ha against LOLRI in % (Lolium rigidum (LOLRI); [10]): 80% | pest or weed control at 20 g/ha (Lolium rigidum (LOLRI); Lolium rigidum, 504 h, dosage 20 g/ha, read-out: Post-emergence action against LOLRI in %): 100% | pest or weed control at 1.25 g/ha (Veronica persica (VERPE); 1.25 g/ha): 100% | pest or weed control at 5 g/ha (Veronica persica (VERPE); 5 g/ha): 100% | pest or weed control at 20 g/ha (Veronica persica (VERPE); 20 g/ha): 100% | pest or weed control at 1.25 g/ha ([6]; dosage 1.25 g/ha): 100% | pest or weed control at 5 g/ha ([6]; dosage 5 g/ha): 100% | pest or weed control at 20 g/ha ([6]; dosage 20 g/ha): 100% | pest or weed control at 1.25 g/ha (Viola tricolor (VIOTR); 1.25 g/ha): 100% | pest or weed control at 5 g/ha (Viola tricolor (VIOTR); 5 g/ha): 100% | pest or weed control at 20 g/ha (Viola tricolor (VIOTR); 20 g/ha): 100% | pest or weed control at 1.25 g/ha [7, 9]: 100% | pest or weed control at 5 g/ha [7, 10]: 100% | pest or weed control at 20 g/ha [7, 11]: 100% | pest or weed control at 20 g/ha (Avena fatua (AVEFA); [11]): 90%

COCCOC(=O)COc1ccccc1Sc1cc(-n2c(=O)cc(C(F)(F)F)n(C)c2=O)c(F)cc1Cl [I.1-1, 2-Methoxyethyl [2-({2-chloro-4-fluoro-5-[3-methyl-2,6-dioxo-4-(trifluoromethyl)-3,6-dihydropyrimidin-1(2H)-yl]phenyl}sulfanyl)phenoxy]acetate]
Post-emergence action against TRZAS (crop plant compatibility) ([1]; 1.25 g/ha): 20% | Post-emergence action against ZEAMX (crop plant compatibility) (Zea mays (ZEAMX)): 20% | Post-emergence action against GLXMA in % (Glycine max (GLXMA); 1.25 g/ha): 0% | Post-emergence action against GLXMA in % (Glycine max (GLXMA); 5 g/ha): 20% | pest or weed control at 5 g/ha [2]: 100% | pest or weed control at 20 g/ha [2]: 100% | pest or weed control at 20 g/ha ([3]; Alopecurus myosuroides, 504 h): 80% | pest or weed control at 20 g/ha (Setaria viridis (SETVI)): 100% | pest or weed control at 1.25 g/ha (Setaria viridis (SETVI)): 100% | pest or weed control at 5 g/ha (Setaria viridis (SETVI)): 100% | pest or weed control at 20 g/ha ([4]; Echinochloa crus-galli, 504 h, read-out: Post-emergence action against ECHCG in %): 80% | Post-emergence action against ORYSA (crop plant compatibility) (Oryza sativa (ORYSA); 1.25 g/ha): 10% | Post-emergence action against ORYSA (crop plant compatibility) (Oryza sativa (ORYSA); 5 g/ha): 10% | pest or weed control at 1.25 g/ha [5]: 100% | pest or weed control at 5 g/ha [5]: 100% | pest or weed control at 20 g/ha [5]: 100% | Post-emergence action at 20 g/ha against HORMU in % (Hordeum murinum (HORMU)): 100% | pest or weed control at 1.25 g/ha (Veronica persica (VERPE)): 80% | pest or weed control at 5 g/ha (Veronica persica (VERPE)): 100% | pest or weed control at 20 g/ha (Veronica persica (VERPE)): 100% | pest or weed control at 1.25 g/ha [6]: 100% | pest or weed control at 5 g/ha [6]: 100% | pest or weed control at 20 g/ha [6]: 100% | pest or weed control at 1.25 g/ha (Viola tricolor (VIOTR)): 100% | pest or weed control at 5 g/ha (Viola tricolor (VIOTR)): 100% | pest or weed control at 20 g/ha (Viola tricolor (VIOTR)): 100% | pest or weed control at 1.25 g/ha [7]: 90% | pest or weed control at 5 g/ha [7]: 100% | pest or weed control at 20 g/ha [7]: 100% | pest or weed control at 20 g/ha (Avena fatua (AVEFA)): 80% | Post-emergence action against STEME (Stellaria media (STEME); 1.25 g/ha): 80% | Post-emergence action against STEME (Stellaria media (STEME); 5 g/ha): 100% | Post-emergence action against STEME (Stellaria media (STEME); 20 g/ha): 100% | pest or weed control at 5 g/ha [8]: 100% | pest or weed control at 20 g/ha [8]: 100%
